Consider 18 molecules from PubChem BioAssay (NCI).

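Method: 48-hour compound exposure of cells in 96-well plates, five concentrations, linear interpolation of endpoints. GI50 = concentration required for 50% inhibition of growth. TGI: total growth inhibition.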

Holding throughout (assay): growth of human tumour cells (NCI), 48 h
In assay [1] the test system is HOP-92 NSCLC.
Assay [2] has as its system HOP-62 NSCLC.
Assay [3] deals with IGROV1 ovarian.
The subject of assay [4] is SW-620 colon.
Assay [5] concerns RXF 393 renal.
Assay [6] deals with MOLT-4 leukemia.
The test system of assay [7] is KM12 colon.
Assay [8] relates to UACC-62 melanoma.
In assay [9] the test system is OVCAR-4 ovarian.
The subject of assay [10] is MDA-MB-435.

Take `COc1cc2ccc1-c1cc(ccc1O)CC1c3cc4c(cc3CCN1C)Oc1c(OC)cc3c(c1O4)C(C2)N(C)CC3` (stereo unspecified): the TGI in assay [1] worked out at 27 µM; in [2], 3.65 µM; in assay [3], 4.35 µM; in [4], 3.31 µM; in [5], 3.24 µM; in [6] it was 4.22 µM. Further, the values for the TGI in [7], in assay [8] and in assay [9] were 3.32 µM, 3.44 µM and 3.72 µM, respectively.

For the molecule `Oc1cc(O)cc(/C=C/c2ccc(O)c(O)c2)c1`, the TGI in assay [1] was 50.3 µM; in assay [2], 28.7 µM; in assay [3] it was 32.1 µM; in assay [4], over 51.8 µM; in assay [5], 45.7 µM; in assay [6], over 46.5 µM. For the same molecule, the values for the TGI in assay [7], in assay [8] and in [9] were 11.2 µM, 15 µM and over 100 µM, respectively.

For `CN(C)c1ccc(C2CC(=O)C(C#N)=C(c3ccccc3)NN2C)cc1` (stereo unspecified), the TGI was over 100 µM in assay [1]; 62.5 µM in assay [2]; over 100 µM in assay [4]; over 100 µM in assay [5]; over 100 µM in assay [6]; over 100 µM in assay [7]. Also, the TGI in assay [9] is over 100 µM.

`CN(C)c1ccc2nc3c(C(=O)O)cc(=O)c(O)c-3oc2c1`: the TGI in [1] is over 100 µM; in assay [2] it was over 100 µM; in assay [3], over 100 µM; in assay [4], over 100 µM; in [5], 76.3 µM; in assay [10] it was 54.9 µM. Further, the TGI in [6] is 51.8 µM; in assay [7], over 100 µM; in [8] it was 46 µM; in assay [9], over 100 µM.

As for `C[n+]1cccc(/C=C/c2ccc3cccc(O)c3n2)c1`, the TGI in [1], in assay [2], in [3], in assay [4], in assay [5] and in [10] was over 100 µM throughout. The TGI in [6], in [7], in assay [8] and in [9] was over 100 µM in each case.

As for `CC(C)CNc1nc(N)[nH]c(=O)c1NC=O`, the TGI in assay [1], in [2], in assay [3], in assay [4], in assay [5] and in assay [10] was over 100 µM in each case. Also, the TGI in [6], in assay [7], in assay [8] and in assay [9] was over 100 µM in each case.

Consider `N=C(N)c1ccc(-c2ccc(-c3ccc(Cl)cn3)s2)cc1`, for which the results for the GI50 in assay [1], in assay [10] and in assay [8] were 1.27 µM, 1.65 µM and 1.84 µM, respectively. Further, the TGI in assay [1] is 2.67 µM; in [10] it was 3.02 µM; in [8], 3.38 µM.

Turning to `CCN(CC)Cc1ccc2cccnc2c1O`, the TGI is over 100 µM in assay [1]; 65.4 µM in assay [2]; 18.4 µM in assay [3]; over 100 µM in [4]; over 100 µM in assay [5]; over 100 µM in assay [10]. In addition, the TGI is 10 µM in assay [6], over 100 µM in assay [8] and over 100 µM in assay [9].

For `Cc1cc(=O)[nH]c(NN2C(Cl)C(=O)C2c2cccc([N+](=O)[O-])c2)n1` (stereo unspecified), the TGI in [1] is 34.1 µM; in [2] it was over 100 µM; in [4], over 100 µM; in assay [5], 22.5 µM; in assay [6] it was 44.9 µM; in [7], 80.9 µM. Further, the TGI in assay [8] came out at 42.5 µM; in [9], 57 µM.

As to `COc1cc2c(cc1OC)C(Cl)C(c1ccc(Cl)cc1)=C2Cl` (stereo unspecified), the TGI in assay [1] was found to be 32.3 µM; in assay [3] it was 48.3 µM; in [4], 52 µM; in assay [6] it was 42.5 µM; in assay [8], 40.4 µM.

On to `C[C@H]1CCC/C=C/[C@@H]2C[C@H](O)C[C@H]2[C@H](O)[C@@H](S(=O)CCN)CC(=O)O1` (stereo partly specified), for which the GI50 in assay [1] is 0.274 µM; in assay [2] it was 0.13 µM; in [3] it was 0.166 µM; in [4] it was 0.0576 µM; in assay [5], under 0.0141 µM; in assay [10] it was 0.0513 µM. The GI50 in [6] was 0.0947 µM; in assay [7] it was under 0.0139 µM; in assay [8], 0.0197 µM; in assay [9] it was under 0.0273 µM. Moreover, the TGI was over 100 µM in assay [1]; over 58.9 µM in assay [2]; 0.0456 µM in assay [5]; over 92.8 µM in [10]; over 82 µM in [8].

As to `c1ccc2c[n+](CCCCCCCCCC[n+]3ccc4ccccc4c3)ccc2c1`, the TGI in [1], in assay [2], in assay [3], in assay [4], in assay [5] and in assay [10] was over 10 µM each time. Further, the TGI in [7], in assay [8] and in assay [9] was over 10 µM each time.

Turning to `CC[C@H](Nc1nc(N)nc(N)c1Cl)c1nc2cccc(NCc3ccc(C(=O)NO)cc3)c2c(=O)n1-c1ccccc1`, the GI50 in assay [1] is 1.26 µM; in assay [2], 1.67 µM; in [4] it was 1.63 µM; in assay [5], 0.403 µM; in [10], 1.7 µM; in [6], 1.47 µM. The GI50 in [7] is 2.08 µM; in assay [8], 1.41 µM. Further, the TGI in assay [1] was 2.81 µM; in assay [2], 4.04 µM; in [4], 4.71 µM; in assay [5], 1.75 µM; in assay [10] it was 3.4 µM; in assay [6], 16.6 µM. The TGI in [7] came to 4.62 µM; in [8] it was 2.81 µM.

As for `O=C(O)c1ccccn1`, the TGI in assay [1], in [2], in assay [3], in [4], in [5] and in [10] was over 100 µM each time. For the same molecule, the TGI in assay [6], in assay [7], in [8] and in [9] was over 100 µM in each case.

As to `COc1cnc2c(c1)C(=O)c1c-2n(CCCN2CCNCC2)c(=O)c2cc(Cl)ccc12`, the GI50 in assay [1] is 1.12 µM; in assay [4] it was 0.0856 µM; in assay [10], 1.25 µM; in assay [7] it was 0.55 µM; in assay [9], 1.17 µM. Moreover, the TGI in assay [1] came out at 13.7 µM; in assay [4] it was 1.82 µM; in assay [10], 2.59 µM; in [7] it was 2.04 µM; in assay [9], 2.73 µM.

As for `O=C1c2ccccc2C(=O)c2c(NCCNC(=O)C3CCCN3)ccc(NCCNC(=O)C3CCCN3)c21` (stereo unspecified), the TGI is over 100 µM in assay [1]; over 100 µM in assay [2]; over 100 µM in assay [3]; over 100 µM in assay [4]; over 100 µM in [10]; 84.2 µM in assay [6]. Besides, the TGI was 49.8 µM in [7], over 100 µM in assay [8] and over 100 µM in assay [9].

As for `CN(C)CCNC(=O)c1cccc2nc3c4ccccc4c4ccccc4c3nc12`, the TGI in assay [1] amounted to 39.4 µM; in [2] it was 34.2 µM; in assay [3], 12.3 µM; in assay [4], 6.59 µM; in [5], 4.65 µM; in assay [10], 3.42 µM. For the same molecule, the TGI in assay [6] came out at 4.96 µM; in [7] it was 3.06 µM; in assay [8], 5.51 µM; in [9], 3.24 µM.

`CN(C)[C@@H]1C(=O)C(C(=O)NCNCCCC(=O)O)=C(O)[C@@]2(O)C(=O)C3=C(O)c4c(O)cccc4[C@@](C)(O)[C@H]3C[C@@H]12`: the TGI in [1], in [2], in assay [3], in assay [4], in [5] and in [6] was over 100 µM throughout. In addition, the TGI in assay [7], in assay [8] and in assay [9] was over 100 µM each time.
